Results reported in patent US8609870B2, “Treating various disorders using TrkB agonists” (Emory University, priority 2008, dated 2013).

Experiments:
[1] = target: T1, TrkB (Homo sapiens, UniProt Q16620); assay: Tyrosine phosphorylation of TrkB in transfected HEK293 cells; format: cell-based
T1 construct: expressed in transfected cells; host or cells: HEK293
From the text: To determine if an identified active compound promotes tyrosine phosphorylation of the other Trk receptors, HEK293 cells are transfected with various Trk receptors, which is followed by treatment with the identified active compound. Treatment with an identified active compound that elicits tyrosine phosphorylation in the TrkB receptor but not in the TrkA or TrkC receptor indicates an active compound.
To determine whether deoxygedunin binds the intra-cellular domain (ICD) or extra-cellular domain (ECD) of the TrkB receptor, ligand binding assays with [^3H]-deoxygedunin were performed. […] The coprecipitated HA-TrkB was also prominently tyrosine phosphorylated (see FIG. 14, 3rd panel).

[2] = system: caspase-3; assay: Caspase-3 activation in cortical neurons from knockout mouse pups; format: cell-based
Experimental: To determine whether an identified active compound selectively activates TrkB receptor and prevents neuronal cell death, cortical neurons are prepared from homozygous pups of TrkB +/− mice, which are mated to the same genotype. The activation of TrkB and down stream indicators of TrkB activation, such as Capase-3, are monitored. To further assess whether an identified active compound blocks neuronal apoptosis in a TrkB dependent manner, cortical neurons are prepared from homozygous pups of […], which are mated to the same genotype. Again, the activation of TrkB and down stream indicators of TrkB activation, such as Capase-3, are monitored.
Additionally, the spontaneous caspase-3 activation in […] was suppressed by deoxygedunin.

[3] = system: BDNF −/− pups; assay: Vestibular ganglion loss in BDNF −/− pups; format: in vivo, mouse
Experimental: The cochleae of various drug-treated pups (P1 or P2 BDNF +/+ and −/− pups) were first fixed through cardioperfusion of 4% paraformaldehyde (in PBS). Each cochlea was dissected out and postfixed in 1% osmium for one hour at room temperature. Samples were decalcified in 0.35 M EDTA (pH 7.5, in PBS) for 72 hours at 4° C., followed by gradual dehydration in graded alcohols, infiltrated, and embedded in epoxy resin with the conventional protocols. Consecutive cochlear sections (5 μm in thickness) were cut with a microtome (Microm HM335E, GmbH) along the axis of the modiolus. Sections were stained with toluidine blue. Vestibular ganglions were identified by their location in the auditory internal meatus with the basal cochlear turn and the cochlear modiolus as morphological reference landmarks.
To examine whether deoxygedunin activating TrkB involved endogenous BDNF, BDNF conditional knockout mice with BDNF gene deletion limited to cortex (thus allowing normal development) were used. Deoxygedunin (5 mg/kg) was intraperitoneally injected into the BDNF cortex conditional knockout mice and the mice were sacrificed at 4 hours. […] Mutant mice lacking BDNF were known to have severe deficiencies in coordination and balance, which have been associated with excessive degeneration in several sensory ganglia including the vestibular ganglion (Ernfors et al., Nature 368, 147-150 (1994)). To determine whether deoxygedunin rescued this loss of vestibular ganglions in BDNF −/− pups, conventional BDNF +/− mice were bred with the same genotype mice. Deoxygedunin (5 mg/kg, i.p.) was administered to the pregnant mice at day E7.5 until birth.

[4] = system: TrkA or TrkB; assay: RT-PCR analysis of Trk receptors in mouse brain; format: in vivo; details: mouse brain upon deoxygedunin treatment
[5] = system: Erk1/2 and Akt; assay: Erk1/2 and Akt activation in hippocampal neurons (Western blot); format: cell-based; details: hippocampal neurons
Experimental: BDNF binding to TrkB induces its autophosphorylation and, subsequently, activation of downstream kinase pathways including MAPK and PI3/Akt. To explore whether an identified active compound triggers TrkB activation, immunofluorescent staining on hippocampal neurons with anti-phospho TrkB antibody is conducted. To examine whether an identified active compound stimulates TrkB-mediated downstream signaling cascades, Western analysis is performed and the activation of Akt and Erk also is monitored. To test whether the stimulatory effect of an identified active compound is mediated through TrkB, cells are either untreated or treated with K252a, a selective inhibitor of the tyrosine kinase activity of the Trk family of neutrophin receptors. Cells treated with K252a block TrkB tyrosine phosphorylation in cells exposed to an identified active compound. To probe the time course of TrkB activation triggered by an identified active compound, hippocampal neurons are treated with an identified active compound at 500 nM and phosphorylation of Erk and Akt is determined over time by Western analysis. Whether stimulation of Erk and Akt by an identified active compound occurs in a dose dependent manner also is determined.
Both Akt and Erk1/2 were robustly activated by these molecules as well). […] The minimal required drug concentration was about 100-250 nM (see FIG. 7, right panels). […] To assess whether deoxygedunin provokes TrkB activation in the brain, mice (i.p.) were injected with a dose of 5 mg/kg for various time points. […] To establish that deoxygedunin is orally bioactive in provoking TrkB activation, two to three month old C57BL/6J mice were orally injected with various doses of 7,8-dihydroxyflavone or deoxygedunin then sacrificed 2 to 4 hours after administration. Brain lysates were prepared and analyzed by immunoblotting (see FIG. 10).

[6] = system: adult male rats; assay: Transient middle cerebral artery occlusion (MCAO) stroke model; details: 2 h MCAO
[7] = system: TrkB F616A knockin mice; assay: KA-provoked apoptosis (caspase-3) in TrkB F616A knockin mice; format: in vivo, mouse; details: TrkB F616A mice, without 1NMPP1
Experimental: To determine if 1NMPP1 makes neurons treated with an identified active compound vulnerable to KA-provoked neuronal cell death, TrkF616A knockin mice are fed with 1NMPP1 (25 mM) in drinking water one day prior to pharmacological reagent treatment. The next day, the mice are intraperitoneally injected with KA (25 mg/kg), or an identified active compound (5 mg/kg) 4 hours prior to KA injection. The control mice are injected with either KA or an identified active compound alone, or the mice are administered an identified active compound 4 hours before KA. After 4 days, the mice are sacrificed and the brains are homogenized and ultracentrifuged. The supernatant then is employed for SDS-PAGE and immunoblotting analysis.
[…] inversely correlated with TrkB activation by deoxygedunin (FIG. 20, top and middle panels).

T1 sequence (Q16620 32-822, species assumed): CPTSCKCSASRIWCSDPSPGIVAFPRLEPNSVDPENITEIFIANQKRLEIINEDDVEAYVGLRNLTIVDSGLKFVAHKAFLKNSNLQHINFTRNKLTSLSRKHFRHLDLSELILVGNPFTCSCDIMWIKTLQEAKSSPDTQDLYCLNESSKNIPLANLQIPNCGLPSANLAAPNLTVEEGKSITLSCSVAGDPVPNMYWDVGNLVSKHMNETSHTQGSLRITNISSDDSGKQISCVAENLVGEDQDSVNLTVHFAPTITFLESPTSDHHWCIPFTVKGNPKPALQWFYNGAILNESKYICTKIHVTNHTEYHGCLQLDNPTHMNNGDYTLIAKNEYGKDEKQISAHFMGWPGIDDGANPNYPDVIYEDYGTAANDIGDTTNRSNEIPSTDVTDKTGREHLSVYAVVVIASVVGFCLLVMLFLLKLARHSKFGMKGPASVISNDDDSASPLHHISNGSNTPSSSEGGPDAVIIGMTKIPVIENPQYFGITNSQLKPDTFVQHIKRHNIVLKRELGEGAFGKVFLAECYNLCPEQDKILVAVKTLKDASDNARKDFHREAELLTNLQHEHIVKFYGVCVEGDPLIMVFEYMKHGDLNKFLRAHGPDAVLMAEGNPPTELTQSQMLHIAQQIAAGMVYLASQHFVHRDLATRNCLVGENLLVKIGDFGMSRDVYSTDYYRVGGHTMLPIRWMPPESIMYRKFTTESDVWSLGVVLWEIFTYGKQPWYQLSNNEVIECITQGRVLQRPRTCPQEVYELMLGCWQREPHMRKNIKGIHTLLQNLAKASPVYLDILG

CC(=O)O[C@@H]1C[C@H]2C(C)(C)C(=O)C=C[C@]2(C)[C@H]2CC[C@]3(C)C(=CC(=O)O[C@H]3c3ccoc3)[C@@]21C [deoxygedunin]
tyrosine phosphorylation in TrkB [1]: elicited tyrosine phosphorylation in TrkB | blockade of glutamate-provoked caspase-3 activation ([2]; TrkB −/− cortical neurons): not TrkB −/− neurons | spontaneous caspase-3 activation ([2]; TrkC −/− neurons): suppressed | glutamate triggered caspase-3 activation ([2]; wild-type and TrkC knockout neuron experiment): diminished | blockade of glutamate-provoked caspase-3 activation ([2]; wild-type cortical neurons): substantially blocked | vestibular ganglia in stained inner ear sections ([3]; BDNF mutant pups, 5 mg/kg i.p.): displayed intact vestibular ganglia | vestibular ganglia detected (quantitative analysis) ([3]; BDNF −/− pups, 5 mg/kg i.p. to pregnant mice from E7.5 and to pups): 42.2±6.3% | survival of BDNF −/− pups under treatment ([3]; neonatal pups receiving 5 mg/kg deoxygedunin): continued dying at P1 or P2 | change of TrkA or TrkB (RT-PCR) [4]: no change of TrkA or TrkB | minimal required drug concentration for Erk1/2 and Akt activation [5]: 100 to 250 nM | Erk1/2 and Akt activation ([5]; time course and dose dependency): prominently provoked both Erk1/2 and Akt activation | survival of ischemic insult and treatment ([6]; 5 mg/kg): All animals included in the study survived | infarct volumes (TTC stained sections) ([6]; 5 mg/kg 5 minutes prior to reperfusion, 24 hours after MCAO): significantly reduced infarct volumes | KA-provoked apoptosis [7]: suppressed KA-provoked apoptosis
